SMILES strings stand for the structures. Where two headings read alike, the source gives them in different places. A value given as a limit tells only on which side of the number the result lay.

Data on two compounds can be found in PMC4750701, “Role of Mitochondrial RNA Polymerase in the Toxicity of Nucleotide Inhibitors of Hepatitis C Virus” (Antimicrobial Agents and Chemotherapy, 2016).

For data set [1], the system named is Primary human hepatocytes. In words: Cytotoxicity in primary human hepatocytes, 5 days. The following applies: read-out: Mean CC50 ± SD in Hepatic cells (primary); human primary hepatocytes, 5 days.
Method: Primary human hepatocytes were from Bioreclamation IVT (Westbury, NY) or Life Technologies (Carlsbad, CA).
(§2) All cells were cultured at 37°C in a 5% CO2 incubator with 90% humidity unless noted otherwise. […] All cells were treated with the various compounds for 5 days, except for human erythroid and myeloid progenitors, which were treated for 14 days. After the incubation period, cell viability was measured by the addition of CellTiter Glo viability reagents (Promega, Madison, WI). The luminescence signal was quantified on an Envision luminescence plate reader (PerkinElmer, Waltham, MA) after incubation of the reagents and cells for 10 min at room temperature. […] CC50 values were calculated as the average of the results of three or four independent experiments.
Data set [2] relates to human erythroid progenitors (bone marrow cells). Briefly: Bone marrow erythroid progenitor colony assay, 14 days. Type of data set: cell-based. The following applies: read-out: Mean CC50 ± SD in Bone marrow cells Erythroid.
Data set [3] deals with human myeloid progenitors (bone marrow cells). In words: Bone marrow myeloid progenitor colony assay, 14 days. Format: cell-based. The following applies: read-out: Mean CC50 ± SD in Bone marrow cells Myeloid.
For a further data set, the system named is Stimulated PBMCs. In words: Cytotoxicity in stimulated PBMCs, 5 days. The following applies: read-out: Mean CC50 ± SD in PBMCs Stimulated; 5 days.
For the next data set, the system named is Quiescent PBMCs. In words: Cytotoxicity in quiescent PBMCs, 5 days. The following applies: read-out: Mean CC50 ± SD in PBMCs Quiescent; 5 days.
Data set [4] has as its system mitochondrial DNA in PC-3 cells and HepG2 cells. Briefly: Mitochondrial DNA depletion, PC-3 versus HepG2 cells. The following applies: 10-day treatment. Format: cell-based, human. The source says:
Supplementary Fig. S1: PC-3 cells are more sensitive to ddC-induced mitochondria toxicity than HepG2 cells. (A) Levels of mitochondrial DNA in PC-3 cells (shown in […] and dashed line) and HepG2 cells (shown in • and solid line) after 10-day treatment; Levels of mitochondrial protein synthesis in PC-3 cells (B) and HepG2 cells (C) represented by COX-1 protein and nuclear protein synthesis represented by SDH-A protein after 5-day treatment. The levels of COX-1 (•), SDH-A ([…]), and ATP (<) are curve fitted to solid, dash, and dotted lines, […]

In a further data set the test system is Fibroblasts (MRC5). Briefly: Cytotoxicity in MRC5 fibroblasts, 5-day treatment. To be noted: read-out: Mean CC50 ± SD in Fibroblasts (MRC5); 5-day treatment.
Another data set relates to HepG2 (galactose). In words: Cytotoxicity in HepG2 (galactose) cells, 5-day treatment. To be noted: read-out: Mean CC50 ± SD in Hepatic cells HepG2 (galactose); 5-day treatment.
Data set [5] deals with mitochondrial DNA-encoded cytochrome c oxidase (COX-1). Briefly: Mitochondrial protein synthesis assay (COX-1, MitoBiogenesis in-cell ELISA) in PC-3 cells. Format: cell-based, human. Here is the method: (§1) PC-3 cells were treated with the compounds for 5 days and analyzed with the MitoTox MitoBiogenesis in-cell enzyme-linked immunosorbent assay (ELISA) kit (MitoSciences/Abcam, Eugene, Oregon) as described previously ([13]). The assay uses quantitative immunocytochemistry to measure the protein levels of nuclear DNA-encoded succinate dehydrogenase (SDH-A; complex II [succinate dehydrogenase]) and mitochondrial DNA-encoded cytochrome c oxidase (COX-1; complex IV [cytochrome c oxidase]) in cultured cells.
On the technique in general: In an ELISA, binding on a coated surface is turned into a signal by an enzyme label.

Data set [6] relates to nuclear DNA-encoded succinate dehydrogenase (SDH-A). In words: Nuclear protein synthesis (SDH-A, MitoBiogenesis in-cell ELISA) in PC-3 cells. Format: cell-based, human. To be noted: 5 days, read-out: Mean CC50 ± SD causing General cellular toxicity: Protein synthesis. The method, then:
as §1

For another data set, the system named is T-cells (MT-4). In words: Cytotoxicity in MT-4 T-cells, 5-day treatment. The following applies: read-out: Mean CC50 ± SD in T-cells (MT-4); 5-day treatment.
Another data set concerns Prostate cells (PC-3). In words: Cytotoxicity / ATP level in PC-3 cells, 5-day treatment.
The test system of another data set is Huh7. In words: Cytotoxicity in Huh7 cells, 5-day treatment (CellTiter Glo). To be noted: read-out: Mean CC50 ± SD in Hepatic cells Huh7; 5-day treatment.
Data set [7] concerns mitochondrial spare respiratory capacity in PC-3 cells. Briefly: Oxygen consumption rate / spare respiratory capacity in PC-3 cells. To be noted: PC-3 cells.
Method: Mitochondrial respiration was monitored by measuring the rate of oxygen consumption (OCR) of PC-3 cells after 3-day treatments with the compounds, using a Seahorse extracellular flux analyzer (XF^e-96) based on published protocols ([22][–][24]). The optimal cell seeding was determined by measuring the basal OCR of PC-3 cells that were seeded at different densities of 2.5 × 10^3, 5 × 10^3, 7.5 × 10^3, and 10 × 10^3 cells/well in XF 96-well plates (Seahorse Bioscience, North Billerica, MA) and incubated with 0.5% dimethyl sulfoxide (DMSO) for 3 days. […] Each reagent in the Mito Stress test kit (Seahorse Biosciences), i.e., ATP synthase inhibitor oligomycin, mitochondrial uncoupler carbonyl cyanide-4-(trifluoromethoxy)phenylhydrazone (FCCP), and a fixed-ratio mixture of the mitochondrial complex I (NADH dehydrogenase) inhibitor rotenone and the complex III (CoQH2-cytochrome c reductase) inhibitor antimycin A, was titrated. The lowest concentration that reached the maximal effect was chosen for each reagent. The OCR signals were normalized by cell numbers using DNA content determined by Hoechst's stain as described below.
PC-3 cells were seeded at a density of 5 × 10^3 cells/well in XF 96-well plates and incubated with the compounds for 3 days. On the day of the assay, the cell medium was replaced with XF assay medium (pH 7.4) containing 10 mM glucose and 1 mM freshly prepared pyruvate. Mitochondrial respiration was monitored by measuring OCR on a Seahorse extracellular flux analyzer (XF^e-96). All concentrations listed are the final concentration after mixing unless noted otherwise. […] Spare respiratory capacity was obtained by subtracting the rate of basal respiration from the rate of maximal respiration.
The cells were lysed by freezing at −80°C for >2 h. […] In parallel, another set of cells was treated with the compounds for 3 days and the ATP levels were measured using CellTiter Glo viability reagents (Promega, Madison, WI).

Method for Fibroblasts (MRC5): as §2
Cell Culture and Cytotoxicity Studies
(§3) The Huh-7 cells were maintained in growth medium containing Dulbecco's Modified Eagle
(§4) Medium (DMEM, Cellgro) supplemented with 1% Nonessential Amino Acids (NEAA, Cellgro,
(§5) Manassas, VA), 10% fetal bovine serum (FBS, HyClone, Logan, UT) and 1% Penicillin-
(§6) streptomycin-glutamate (PSG, Invitrogen, Carlsbad, CA). The cells were passaged twice weekly
(§7) and maintained at 90% confluence densities.
(§8) The HepG2 cells were maintained in Eagle’s Minimum Essential Medium (EMEM) from ATCC
(§9) (Manassas, VA) supplemented with 10% FBS, 100 units/mL penicillin and 100 µg/mL
(§10) streptomycin (P/S) (Gibco). The cells were passaged twice weekly and maintained at 90%
(§11) The PC-3 cells were maintained in Kaighn’s F12 medium (Gibco, Carlsbad, CA) supplemented
(§12) with 10% FBS (HyClone, Logan, UT), 100 units/mL penicillin and 100 µg/mL streptomycin
(§13) (P/S) (Gibco). The cells were passaged twice weekly and maintained at 90% confluence. Cells
(§14) between passages 4 and 15 were used in the assays.
(§15) The fibroblast cell line MRC-5 cell line derived from normal lung tissue, was purchased from
(§16) ATCC (Manassas, VA) and cultured in Minimum Essential Medium (MEM) (Cellgro, Manassas,
(§17) VA) supplemented with 10% FBS (HyClone, Logan, UT) and 1% PSG (Invitrogen). The cells
(§18) were passaged twice weekly and maintained at 90% confluence densities.
Method for HepG2 (galactose): as §2
Cell Culture and Cytotoxicity Studies
as §3, §4, §5, §6, §7, §8, §9, §10, §11, §12, §13, §14, §15, §16, §17, §18
Method for Huh7: as §2
Cell Culture and Cytotoxicity Studies
as §3, §4, §5, §6, §7, §8, §9, §10, §11, §12, §13, §14, §15, §16, §17, §18
Method for Stimulated PBMCs: Human peripheral blood mononuclear cells (PBMCs) were isolated from human buffy coats obtained from healthy volunteers (Stanford Blood Bank, Palo Alto, CA) using standard Ficoll separation and stimulated as described elsewhere ([13]) and were tested at both quiescent and stimulated stages. Quiescent PBMCs were stimulated with 10 units per ml of recombinant human interleukin 2 (hIL-2) and 1 μg per ml phytohemagglutinin P (PHA-P) for 48 h prior to drug treatment.
as §2
Human peripheral blood mononuclear cells (PBMCs) were isolated from human buffy coats
obtained from normal healthy volunteers (Stanford Medical School Blood Center, Palo Alto,
CA). Total PBMCs were isolated from buffy coats using standard Ficoll separation and sterile
cellular isolation techniques performed in a bio-safety cabinet (1). Except where noted, the
procedure was carried out at room temperature. The final PBMCs pellet was resuspended in
Logan, UT), penicillin 100 units/mL and streptomycin 100 µg/mL (Gibco). For quiescent
PBMCs cultures, total cells were seeded in 96-well plates at a density of 1 x 10^6 cells per well, followed by immediate drug treatment. Stimulated PBMCs cultures were set up by seeding the freshly isolated PBMCs in T-175cm2 tissue culture flasks in 100 mL of RPMI containing the same components as the ones used for the quiescent PBMCs but with the addition of 10 units per mL of recombinant human interleukin-2 (hIL-2, Roche, Indianapolis, IN), and 1 µg per mL phytohemagglutinin-P (PHA-P, Sigma-Aldrich, St. Louis, MO) at density of 2  10^6 cells per mL for 48 hours at 37C in a 5% CO2 incubator with 90% humidity, prior to drug treatment.

For the compound `O=c1[nH]cc(F)c(=O)[nH]1` [5-FU, 5-flurouracil], the CC50 was > 100 µM in data set [1]; 3.7 ± 0.5 µM in [2]; 3.4 ± 0.8 µM in data set [3]; > 100 µM in the data set on Stimulated PBMCs; > 100 µM with Quiescent PBMCs.
Turning to `Nc1ccn([C@H]2CC[C@@H](CO)O2)c(=O)n1` [ddC, dideoxycytosine], the “fold greater sensitivity of PC-3 cells than HepG2 cells to mitochondrial DNA depletion” value in [4] is listed as > 30 fold. Also, the CC50 with Fibroblasts (MRC5) was > 89 µM; with HepG2 (galactose), > 89 µM; in data set [1], > 100 µM; in data set [5] (PC-3 cells, COX-1, 5 days, read-out: Mean CC50 ± SD causing Mitochondrial toxicity: Protein synthesis), 0.19 ± 0.07 µM; in [2], 1.9 ± 0.3 µM; in data set [3], 9.7 ± 2 µM. The CC50 was > 1 µM in [6]; > 100 µM with Stimulated PBMCs; > 89 µM in the data set on T-cells (MT-4); 0.8 ± 0.21 µM in the data set with Prostate cells (PC-3) (read-out: Mean CC50 ± SD causing General cellular toxicity: ATP level, PC-3 cells, 5 days); 0.8 ± 0.21 µM with Prostate cells (PC-3) (read-out: Mean CC50 ± SD in Prostate cells (PC-3), 5-day treatment); > 100 µM with Quiescent PBMCs. Also, the CC50 in the data set with Huh7 was > 89 µM; in [7] (read-out: Mean CC50 ± SD causing Mitochondrial toxicity: Respiration, spare respiratory capacity, 3 days), 0.21 ± 0.03 µM. In addition, the “fold greater sensitivity of PC-3 cells than HepG2 cells to reductions in COX-1 protein expression” value in data set [5] (5-day treatment) is reported as > 500 fold. For the same compound, the “selectivity of effect on COX-1 versus SDH-A and ATP levels” value in [5] (PC-3 cells, 5-day treatments) is recorded as “specifically inhibited COX-1 synthesis”. Moreover, the “selectivity of effect on spare respiratory capacity versus DNA and ATP levels” value in [7] (3-day treatments) was “specifically inhibited mitochondrial spare respiratory capacity”.
